We go through three molecules from patent US20060210627A1, “Direct compression formulation and process” (priority 2005, published 2006).

What is called AUC(0-inf) is total exposure, with the tail of the curve extrapolated. Low values mean low exposure, high ones high exposure. What is called AUC(0-t) is exposure summed from dosing to a finite time, without extrapolation to infinity. Low values mean low exposure, high ones high exposure. In general, Cmax refers to the highest concentration seen after dosing. Usually Tmax stands for the time at which the peak concentration occurs.

The structures appear in SMILES notation.

The nature of data set [1]: Water sorption/desorption isotherm (dynamic vapor sorption, DVS-1). Format: physicochemical. The settings on record: 25° C.; for moisture gain: at 85% RH. As to the method:
Measurements were carried out at 25° C.

Data set [2] is described as follows: clinical. The note with it: human, plasma, po.
Data set [3] can be described thus: clinical. The settings on record: human, plasma, po. The source holds these as a separate data set.
A short description of data set [4]: Water solubility (statement). It is filed as physicochemical.
Data set [5] can be described thus: Pharmacokinetic drug-drug interaction study of vildagliptin 100 mg qd and metformin 1000 mg qd in patients with type 2 diabetes. Format: in vivo. The settings on record: human, plasma, single oral dose of 100 mg, concomitantly with 1000 mg of metformin. As to the method: Subjects are given an end-of-study evaluation on the last day of period 2 (Day 20). For all treatment periods, subjects fasted for a minimum of 10 hours pre-dose to 4 hours post-dose. Subjects are considered to have completed the study when all safety and pharmacokinetic evaluations have been completed.
The pharmacokinetic profiles are illustrated in FIG. 5.

As for `N#C[C@@H]1CCCN1C(=O)CNC12CC3CC(CC(O)(C3)C1)C2` [vildagliptin amorphous form], in data set [1], the hygroscopicity entry is “hygroscopic” and the moisture gain is 4.2%.
As for `N#C[C@@H]1CCCN1C(=O)CNC12CC3CC(CC(O)(C3)C1)C2` [vildagliptin, (S)-1-[(3-hydroxy-1-adamantyl)amino]acetyl-2-cyano-pyrrolidine], the AUC(0-inf) in the data set “clinical [2]” (25 mg) came out at 461 ± 91 ng·h/mL; in the data set “clinical [2]” (50 mg) it was 1030 ng·h/mL; in “clinical [2]” (100 mg), 2350 ng·h/mL; in the data set “clinical [2]” (200 mg), 5080 ± 721 ng·h/mL. The AUC(0-t) in the data set “clinical [2]” (25 mg) worked out at 453 ± 91 ng·h/mL; in the data set “clinical [2]” (50 mg), 1020 ± 193 ng·h/mL; in the data set “clinical [2]” (100 mg) it was 2330 ± 278 ng·h/mL; in the data set “clinical [2]” (200 mg), 5060 ± 722 ng·h/mL; in data set [5] it was 1840 ng·h/mL. Further, the figures for the Cmax in “clinical [2]” (25 mg), in the data set “clinical [2]” (50 mg) and in “clinical [2]” (200 mg) were 117 ± 41 ng/mL, 245 ± 87 ng/mL and 1100 ± 280 ng/mL, respectively. In addition, the Tmax in “clinical [2]” (25 mg, tmax (h) median (min, max), single oral 25 mg FMI tablet, healthy volunteers) turned out to be 1.5 h; in “clinical [2]” (50 mg, arithmetic mean tmax of vildagliptin, single oral dose of 50 mg, healthy human subject) it was 2.1 h; in the data set “clinical [2]” (50 mg, tmax (h) median (min, max), single oral 50 mg FMI tablet, healthy volunteers), 1.5 h; in the data set “clinical [2]” (100 mg, arithmetic mean tmax of vildagliptin, single oral dose of 100 mg, healthy human subject), 2 h; in “clinical [2]” (100 mg, tmax (h) median (min, max), single oral 100 mg FMI tablet, healthy volunteers) it was 1.75 h; in “clinical [2]” (200 mg, tmax (h) median (min, max), single oral 200 mg FMI tablet, healthy volunteers), 1.25 h. In addition, the Tmax in “clinical [3]” came to 1 h; in data set [5], 2.5 h. The water solubility result in data set [4] is given as “highly water soluble”.
With `N#C[C@@H]1CCCN1C(=O)CNC12CC3CC(CC(O)(C3)C1)C2` [Crystalline vildagliptin Form A, 1-[(3-Hydroxy-adamant-1-ylamino)-acetyl]-pyrrolidine-2(S)-carbonitrile], in data set [1], the hygroscopicity entry is reported as “only very slightly hygroscopic” and the moisture gain stood at 0.9%.
